# Reference: ChEMBL document CHEMBL6109084 (Eur J Med Chem, 2025)
# Activity calls are given as the source filed them. The calls are words filed in the database; no cut-off is given here.
# Key:
# [1] = tested on: Plasma; assay: Anticoagulant activity in citrated human plasma assessed as prolongation of activated partial thromboplastin time at 1 uM incubated for 3 mins by aPTT reagent based automated coagulometric analysis relative to control; format: functional; details: 0.05 h
# [2] = Metabolic stability in human liver microsome assessed as half life; format: ADME; details: liver microsomes
# [3] = tested on: Plasma; assay: Anticoagulant activity in citrated human plasma assessed as prolongation of activated partial thromboplastin time incubated for 3 mins by aPTT reagent based automated coagulometric analysis; format: functional
# [4] = biological target: Plasma kallikrein (Homo sapiens, UniProt P03952); assay: Inhibition of PKal (unknown origin) using H-D-Pro-Phe-Arg-pNA.2HCl as substrate incubated for 30 mins followed by substrate addition and measured after 60 mins by microplate reader analysis
# [5] = biological target: T1, Coagulation factor XII (Homo sapiens, UniProt P00748); assay: Inhibition of FXIIa (unknown origin) using H-D-ProPhe-Arg-pNA.2HCl as substrate incubated for 30 mins followed by substrate addition and measured after 60 mins by microplate reader analysis
# T1 sequence (P00748 whole entry): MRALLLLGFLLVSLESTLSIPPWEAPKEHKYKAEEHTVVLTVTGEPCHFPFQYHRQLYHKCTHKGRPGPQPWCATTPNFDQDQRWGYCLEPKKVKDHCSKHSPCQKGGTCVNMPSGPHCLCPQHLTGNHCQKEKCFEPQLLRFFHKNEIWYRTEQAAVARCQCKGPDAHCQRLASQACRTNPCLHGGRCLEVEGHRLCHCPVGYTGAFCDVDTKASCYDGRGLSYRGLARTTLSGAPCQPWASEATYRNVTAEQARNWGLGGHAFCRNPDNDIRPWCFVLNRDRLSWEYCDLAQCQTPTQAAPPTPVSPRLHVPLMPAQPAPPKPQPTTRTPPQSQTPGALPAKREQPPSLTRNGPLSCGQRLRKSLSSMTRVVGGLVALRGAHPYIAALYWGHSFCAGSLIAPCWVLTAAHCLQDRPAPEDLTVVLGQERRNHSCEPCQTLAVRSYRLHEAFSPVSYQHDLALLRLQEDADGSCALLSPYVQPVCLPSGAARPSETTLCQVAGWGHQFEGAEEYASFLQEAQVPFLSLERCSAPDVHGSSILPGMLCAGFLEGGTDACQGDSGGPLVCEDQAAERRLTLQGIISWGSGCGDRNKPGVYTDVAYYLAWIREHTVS
# [6] = tested on: HepG2; assay: Cytotoxicity against human HepG2 cells assessed as reduction in cell viability at 1 to 50 uM incubated for 24 hrs by MTT assay; format: toxicity, cell-based; details: hepg2, 24 h, dose 1-50 µM
# [7] = tested on: Mus musculus; assay: Antithrombotic activity in FeCl3-induced carotid arterial thrombosis C57BL/6J mouse model assessed as increase in blood flow velocity at 10 mg/kg, po measured after 0.5 to 4 hrs; format: functional, organism-based; details: time 0.5-4 hrs
# [8] = tested on: Mus musculus; assay: Antithrombotic activity in po dosed FeCl3-induced carotid arterial thrombosis C57BL/6J mouse model assessed as increase in mean blood flow velocity measured after 0.5 hrs; format: functional, organism-based; details: dose 5-30 mg/kg
# [9] = tested on: Mus musculus; assay: Antithrombotic activity in FeCl3-induced carotid arterial thrombosis C57BL/6J mouse model assessed as increase in peak velocity at 10 mg/kg, po measured after 2 to 4 hrs; format: functional, organism-based; details: time 2-4 hrs
# [10] = tested on: Oryctolagus cuniculus; assay: Antithrombotic activity in FeCl3-induced carotid arterial thrombosis male New Zealand white rabbits model assessed as reduction in wet thrombus weight at 6 mg/kg, iv preincubated for 30 mins followed by FeCl3 application for 5 mins and measured after 30 mins relative to control; format: functional, organism-based; details: time 65.0 min
# [11] = Toxicity in C57BL/6J mouse assessed as prolongation of bleeding time at 30 to 60 mg/kg, IG measured after 30 mins by tail bleeding assay; format: organism-based; details: in vivo, po, 0.5 h, dose 30-60 mg/kg
# [12] = Acute toxicity in C57BL/6J mouse assessed as anaphylaxis response at 60 to 100 mg/kg, po administered as single dose for 14 days; format: organism-based; details: in vivo, 336 h, dose 60-100 mg/kg, time 14 day
# [13] = Acute toxicity in C57BL/6J mouse assessed as weight loss at 60 to 100 mg/kg, po administered as single dose for 14 days; format: organism-based; details: in vivo, 336 h, dose 60-100 mg/kg, time 14 day
# [14] = Acute toxicity in C57BL/6J mouse assessed as pathological changes in liver at 60 to 100 mg/kg, po administered as single dose for 14 days by H and E staining based analysis; format: organism-based; details: in vivo, 336 h, dose 60-100 mg/kg, time 14 day
# [15] = Acute toxicity in C57BL/6J mouse assessed as pathological changes in lung at 60 to 100 mg/kg, po administered as single dose for 14 days by H and E staining based analysis; format: organism-based; details: in vivo, 336 h, dose 60-100 mg/kg, time 14 day
# [16] = tested on: Oryctolagus cuniculus; assay: Antithrombotic activity in FeCl3-induced carotid arterial thrombosis male New Zealand white rabbits model assessed as reduction in dry thrombus weight at 2 mg/kg, iv preincubated for 30 mins followed by FeCl3 application for 5 and measured after 45 mins relative to control; format: functional; design: scale not given: the % may be the effect or the level left; details: time 80 min, 1.333 h
# [17] = Apparent permeability in MDCK-MDR1 cells; format: ADME, cell-based, Canis lupus familiaris; details: dog
# [18] = tested on: Plasma; assay: Anticoagulant activity in mouse plasma assessed as prolongation of activated partial thromboplastin time incubated for 3 mins by aPTT reagent based automated coagulometric analysis; format: functional; details: 0.05 h
# [19] = Selectivity index, ratio of IC50 for inhibition of thrombin (unknown origin) using H-D-Phe-Pip-Arg-pNA.2HCl as substrate to IC50 for inhibition of human FXIa using p-Glu-Pro-Arg-pNA.HCl as substrate
# [20] = Selectivity index, ratio of IC50 for inhibition of plasmin (unknown origin) using PyroGlu-Phe-Lys-pNA.HCl as substrate to IC50 for inhibition of human FXIa using p-Glu-Pro-Arg-pNA.HCl as substrate
# [21] = Selectivity index, ratio of IC50 for inhibition of trypsin (unknown origin) using Bz-Ile-Glu(gamma-OR)-Gly-Arg-pNA.HCl as substrate to IC50 for inhibition of human FXIa using p-Glu-Pro-Arg-pNA.HCl as substrate
# [22] = Selectivity index, ratio of IC50 for inhibition of chymotrypsin (unknown origin) using N-Suc-Ala-Ala-Pro-Phe-pNA as substrate to IC50 for inhibition of human FXIa using p-Glu-Pro-Arg-pNA.HCl as substrate
# [23] = Acute toxicity in C57BL/6J mouse assessed as effect on heart weight at 60 to 100 mg/kg, po measured after 24 hrs; format: organism-based; details: in vivo, dose 60-100 mg/kg
# [24] = Acute toxicity in C57BL/6J mouse assessed as effect on kidney weight at 60 to 100 mg/kg, po measured after 24 hrs; format: organism-based; details: in vivo, dose 60-100 mg/kg
# [25] = Acute toxicity in C57BL/6J mouse assessed as effect on serum aspartate aminotransferase level at 60 to 100 mg/kg, po measured after 24 hrs; format: organism-based; details: in vivo, dose 60-100 mg/kg
# [26] = Acute toxicity in C57BL/6J mouse assessed as effect on serum alanine transaminase level at 60 to 100 mg/kg, po measured after 24 hrs; format: organism-based; details: in vivo, dose 60-100 mg/kg
# [27] = physchem; details: aqueous medium, pH 7.4
# Description: Aqueous solubility of the compound in DMSO at pH 7.4 incubated for 12 hrs by turbidimetric based UV spectrophotometric analysis
# Chain of Plasma kallikrein (P03952 20-390 limits assumed): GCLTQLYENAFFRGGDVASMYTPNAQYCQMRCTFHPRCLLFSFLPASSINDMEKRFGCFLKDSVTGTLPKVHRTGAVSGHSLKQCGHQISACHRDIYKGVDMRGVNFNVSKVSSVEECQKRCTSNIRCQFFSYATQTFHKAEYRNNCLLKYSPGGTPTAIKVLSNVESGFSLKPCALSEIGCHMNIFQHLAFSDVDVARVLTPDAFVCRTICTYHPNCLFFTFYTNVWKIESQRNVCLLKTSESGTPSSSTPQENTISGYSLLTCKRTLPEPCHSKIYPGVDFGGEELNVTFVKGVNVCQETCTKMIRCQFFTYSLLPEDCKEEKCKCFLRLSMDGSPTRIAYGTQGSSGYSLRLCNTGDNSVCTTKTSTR
# Chain of Plasma kallikrein (P03952 391-638 limits assumed): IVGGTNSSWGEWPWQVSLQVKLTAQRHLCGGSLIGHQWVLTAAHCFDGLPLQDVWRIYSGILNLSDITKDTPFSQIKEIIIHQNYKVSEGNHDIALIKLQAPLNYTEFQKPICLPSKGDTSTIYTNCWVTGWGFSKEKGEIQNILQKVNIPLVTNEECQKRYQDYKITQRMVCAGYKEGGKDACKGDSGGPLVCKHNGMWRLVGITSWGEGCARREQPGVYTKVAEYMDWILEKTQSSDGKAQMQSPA
smiles,measurement,setting,value
COc1cn(Cc2cc(-c3ccc(N)nc3F)ccn2)c(=O)cc1-c1cc(Cl)ccc1-n1cnnn1,Activity,[1],247.3%
same,half-life,[2],> 3 h
same,Activity,[3],Dose-dependent-effect
same,EC1.5,[3]; 0.05 h,0.43 µM
same,IC50,[4],222 nM
same,IC50,[5],> 1000 nM
same,Activity,[6],Non-toxic
same,Activity,[7],Active
same,Activity,[8],Dose-dependent-effect
same,Activity,[9],Active; Pronounced Increase Observed Compared To Compound F
same,Activity,[10],Active; Outperformed Asundexian Reducing Thrombus Weight
same,Activity,[11],Non-toxic
same,Activity,[12],Non-toxic
same,Activity,[13],Non-toxic
same,Activity,[14],Non-toxic
same,Activity,[15],Non-toxic
same,Activity,[16],>50%
same,Papp,[17],0.5 ×10⁻⁶ cm/s
same,EC1.5,[18],1.6 µM
same,Ratio IC50,[19],> 1000
same,Ratio IC50,[20],> 1000
same,Ratio IC50,[21],> 1000
same,Ratio IC50,[22],> 1000
same,Activity,[23],Non-toxic
same,Activity,[24],Non-toxic
same,Activity,[25],Non-toxic
same,Activity,[26],Non-toxic
same,solubility kinetic at 12 h,[27],122 µg/mL
